Assay results published in patent US20100273876A1, “ANTIBACTERIAL FORMULATION COMPRISING A DIALKYL SULPHOSUCCINATE AND A CARBANILIDE ANTIBACTERIAL AGENT” (priority 2007, published 2010).

How the values were obtained:
Experiment in all cases: (S)DDA disc diffusion
[1] = system: C. mucifaciens ATCC 700355; format: cell-based, Corynebacterium mucifaciens; conditions: for DDA: 200 μg per disc
Protocol: (§1) Several Corynebacterium test species were also used in this study, namely C. mucifaciens ATCC 700355, C. striatum NCTC 764, C. xerosis NCTC 11861 and C. jeikeium NCTC 11915. These Gram-positive pathogens are closely related to organisms (aerobic diphtheroids of the genus Corynebacterium) that cause body odour. C. mucifaciens and C. striatum were cultured and maintained on Mueller-Hinton Medium (agar and broth) and were incubated aerobically at 37° C. for 24 hours. C. xerosis and C. jeikeium were cultured and maintained on Mueller-Hinton Medium containing 5% (v/v) lysed horse blood (agar and broth) and were incubated aerobically at 37° C. for 72 hours. A sterile paper disc was impregnated with a sample of the test compound in a suitable solvent and 30 minutes allowed for the solvents to evaporate (where possible). The disc was then placed on an agar plate onto which the test micro-organism had been inoculated. The plate was then incubated under the conditions described above, following which it was examined visually for signs of microbial growth. If the test compound had antimicrobial activity, a circular zone of no growth would be obtained around the disc. The diameter of this zone of “inhibition” was measured using a ProtoCOL™ automated zone sizer (Synbiosis, Cambridge, UK). In general, a greater diameter and/or area of the zone of inhibition indicates a greater antimicrobial activity in the relevant test compound, although other factors such as test compound mobility through the agar gel may also influence the result. Two test a compounds A and B were placed on a single paper disc and the above described DDA procedure repeated. An increase in diameter of the zone of inhibition, compared to the greater of the zone diameters for the two compounds individually, was taken to indicate potential antimicrobial synergy. In practical terms, an increase of greater than 5 mm could be treated as significant. The activities of DOSS and TCC were determined, using (S)DDAs, against the test organisms C. mucifaciens ATCC 700355, C. striatum NCTC 764, C. xerosis NCTC 11861 and C. jeikeium NCTC 11915. 200 μg of the DOSS and/or the TCC were loaded onto each disc. All the experiments were conducted in triplicate.

C. striatum NCTC 764 = format: cell-based, Corynebacterium striatum; conditions: for DDA: 200 μg per disc
Protocol: as §1

P. acnes PRP-023 = format: cell-based, Propionibacterium acnes
Protocol: (§2) The propionibacteria were cultured and maintained on Wilkins-Chalgren Anaerobe Medium (agar and broth) at pH 6.0; all cultures were incubated anaerobically at 37° C. for 72 hours.
(§3) A sterile paper disc was impregnated with a sample of the test compound in a suitable solvent and 30 minutes allowed for the solvents to evaporate (where possible). The disc was then placed on an agar plate onto which the test micro-organism had been inoculated. The plate was then incubated under the conditions described above, following which it was examined visually for signs of microbial growth. If the test compound had antimicrobial activity, a circular zone of no growth would be obtained around the disc. The diameter of this zone of “inhibition” was measured using a ProtoCOL™ automated zone sizer (Synbiosis, Cambridge, UK). In general, a greater diameter and/or area of the zone of inhibition indicates a greater antimicrobial activity in the relevant test compound, although other factors such as test compound mobility through the agar gel may also influence the result.
(§4) Two test a compounds A and B were placed on a single paper disc and the above described DDA procedure repeated. An increase in diameter of the zone of inhibition, compared to the greater of the zone diameters for the two compounds individually, was taken to indicate potential antimicrobial synergy. In practical terms, an increase of greater than 5 mm could be treated as significant.
(§5) Both the DDA and the SDDA test may be carried out using an agar gel supplemented with lipid and/or salt to simulate some of the major components present in human skin and to assess whether these substances might reduce the antimicrobial activity observed for the test compound. Performance under these conditions can provide a more reliable indication of activity on topical application. The supplements used in Examples 1, 11, 12 and 13 below were lipid (either Tween™ 80 at 1% v/v (Example 1) or triolein at 1% v/v (Examples 11, 12 and 13) and sodium chloride (100 mM).

P. acnes PRP-008 = format: cell-based, Propionibacterium acnes
Protocol: as §2, §3, §4, §5

P. acnes PRP-039 = format: cell-based, Propionibacterium acnes; conditions: for DDA: P. acnes PRP-039 (Tet/MLS), 200 μg TCC or 50 μg DOSS per disc
Protocol: as §2, §3, §4, §5

P. acnes PRP-026 = format: cell-based, Propionibacterium acnes
Protocol: as §2, §3, §4, §5

P. acnes PRP-101 = format: cell-based, Propionibacterium acnes
Protocol: as §2, §3, §4, §5

P. acnes PRP-053 = format: cell-based, Propionibacterium acnes
Protocol: as §2, §3, §4, §5

P. acnes PRP-010 = format: cell-based, Propionibacterium acnes
Protocol: as §2, §3, §4, §5

P. acnes PRP-059 = format: cell-based, Propionibacterium acnes
Protocol: as §2, §3, §4, §5

P. acnes PRP-068 = format: cell-based, Propionibacterium acnes
Protocol: as §2, §3, §4, §5

P. acnes PRP-004 = format: cell-based, Propionibacterium acnes
Protocol: as §2, §3, §4, §5

[2] = P. acnes PRP-023 (MLSK), 200 μg TCC or 50 μg DOSS per disc
[3] = P. acnes PRP-008 (Clin), 200 μg TCC or 50 μg DOSS per disc
[4] = P. acnes PRP-026 (MLS), 200 μg TCC or 50 μg DOSS per disc
[5] = P. acnes PRP-101 (Tet/MLS), 200 μg TCC or 50 μg DOSS per disc
[6] = P. acnes PRP-053 (Tet/MLS), 200 μg TCC or 50 μg DOSS per disc
[7] = P. acnes PRP-010 (MLSK), 200 μg TCC or 50 μg DOSS per disc
[8] = P. acnes PRP-059 (MLS), 200 μg TCC or 50 μg DOSS per disc
[9] = P. acnes PRP-068 (Ery), 200 μg TCC or 50 μg DOSS per disc
[10] = P. acnes PRP-004 (Tet), 200 μg TCC or 50 μg DOSS per disc
[11] = 200 μg DOSS + 200 μg TCC on one disc

O=C(Nc1ccc(Cl)cc1)Nc1ccc(Cl)c(Cl)c1 [TCC, N-(4-chlorophenyl)-N′-(3,4-dichlorophenyl) urea]
DDA [1]: 9.59 mm | DDA (C. striatum NCTC 764): 14.08 mm | DDA (P. acnes PRP-023; [2]): 21.27 mm | DDA (P. acnes PRP-008; [3]): 14.80 mm | DDA (P. acnes PRP-039): 18.91 mm | DDA (P. acnes PRP-026; [4]): 22.71 mm | DDA (P. acnes PRP-101; [5]): 16.75 mm | DDA (P. acnes PRP-053; [6]): 21.58 mm | DDA (P. acnes PRP-010; [7]): 22.81 mm | DDA (P. acnes PRP-059; [8]): 19.73 mm | DDA (P. acnes PRP-068; [9]): 22.30 mm | DDA (P. acnes PRP-004; [10]): 15.42 mm

dioctyl sodium sulphosuccinate [DOSS]
SDDA area increase [1]: 165.45% | SDDA increase [1]: 8.13 mm | SDDA with TCC [1, 11]: 21.05 mm | DDA [1]: 12.92 mm | SDDA area increase (C. striatum NCTC 764): 70.79% | SDDA increase (C. striatum NCTC 764): 6.0 mm | SDDA with TCC (C. striatum NCTC 764; [11]): 25.57 mm | DDA (C. striatum NCTC 764): 19.57 mm | DDA (P. acnes PRP-023; [2]): 26.41 mm | DDA (P. acnes PRP-023; P. acnes PRP-023, 200 μg per disc): 49.49 mm | DDA + salt (P. acnes PRP-023; P. acnes PRP-023, 200 μg per disc, sodium chloride 100 mM): 47.32 mm | DDA + lipid (P. acnes PRP-023; P. acnes PRP-023, 200 μg per disc, triolein 1% v/v): 46.38 mm | DDA (P. acnes PRP-008; [3]): 24.87 mm | DDA (P. acnes PRP-008; P. acnes PRP-008, 200 μg per disc): 48.25 mm | DDA + salt (P. acnes PRP-008; P. acnes PRP-008, 200 μg per disc, sodium chloride 100 mM): 48.56 mm | DDA + lipid (P. acnes PRP-008; P. acnes PRP-008, 200 μg per disc, triolein 1% v/v): 43.58 mm | DDA (P. acnes PRP-039): 23.02 mm | DDA + salt (P. acnes PRP-039; P. acnes PRP-039, 200 μg per disc, sodium chloride 100 mM): 46.38 mm | DDA (P. acnes PRP-026; [4]): 28.26 mm | DDA (P. acnes PRP-026; P. acnes PRP-026, 200 μg per disc): 49.81 mm | DDA + salt (P. acnes PRP-026; P. acnes PRP-026, 200 μg per disc, sodium chloride 100 mM): 48.25 mm | DDA + lipid (P. acnes PRP-026; P. acnes PRP-026, 200 μg per disc, triolein 1% v/v): 43.89 mm | DDA (P. acnes PRP-101; [5]): 14.59 mm | DDA (P. acnes PRP-101; P. acnes PRP-101, 200 μg per disc): 41.40 mm | DDA + lipid (P. acnes PRP-101; P. acnes PRP-101, 200 μg per disc, triolein 1% v/v): 40.47 mm | DDA (P. acnes PRP-053; [6]): 17.78 mm | DDA (P. acnes PRP-053; P. acnes PRP-053, 200 μg per disc): 49.49 mm | DDA + salt (P. acnes PRP-053; P. acnes PRP-053, 200 μg per disc, sodium chloride 100 mM): 44.82 mm | DDA + lipid (P. acnes PRP-053; P. acnes PRP-053, 200 μg per disc, triolein 1% v/v): 42.02 mm | DDA (P. acnes PRP-010; [7]): 26.82 mm | DDA (P. acnes PRP-010; P. acnes PRP-010, 200 μg per disc): 46.69 mm | DDA + salt (P. acnes PRP-010; P. acnes PRP-010, 200 μg per disc, sodium chloride 100 mM): 46.07 mm | DDA + lipid (P. acnes PRP-010; P. acnes PRP-010, 200 μg per disc, triolein 1% v/v): 39.84 mm | DDA (P. acnes PRP-059; [8]): 11.82 mm | DDA (P. acnes PRP-059; P. acnes PRP-059, 200 μg per disc): 43.58 mm | DDA + salt (P. acnes PRP-059; P. acnes PRP-059, 200 μg per disc, sodium chloride 100 mM): 44.20 mm | DDA + lipid (P. acnes PRP-059; P. acnes PRP-059, 200 μg per disc, triolein 1% v/v): 44.82 mm | DDA (P. acnes PRP-068; [9]): 25.59 mm | DDA (P. acnes PRP-068; P. acnes PRP-068, 200 μg per disc): 48.87 mm | DDA + salt (P. acnes PRP-068; P. acnes PRP-068, 200 μg per disc, sodium chloride 100 mM): 46.69 mm | DDA + lipid (P. acnes PRP-068; P. acnes PRP-068, 200 μg per disc, triolein 1% v/v): 44.51 mm | DDA (P. acnes PRP-004; [10]): 26.62 mm | DDA (P. acnes PRP-004; P. acnes PRP-004, 200 μg per disc): 48.56 mm | DDA + salt (P. acnes PRP-004; P. acnes PRP-004, 200 μg per disc, sodium chloride 100 mM): 43.27 mm | DDA + lipid (P. acnes PRP-004; P. acnes PRP-004, 200 μg per disc, triolein 1% v/v): 46.07 mm
